In patent US5707833A, “Process of making cyclodextrin glucanotransferase with brevibacterium” (priority 1993, dated 1998):
Like-named read-outs stand apart in the source and are kept apart here.

System: cyclodextrin glucanotransferase (γ-CGTase, EC 2.4.1.19) of Brevibacterium sp. No. 9605
Assay type: biochemical
Protocol: (8) Activity measurement: In the measurements of the enzlanological properties described above, enzyme activity was measured by the following method. A 0.05 ml portion of an aqueous solution of the enzyme was added to 0.5 ml of a substrate solution (1.5% by weight soluble starch in 0.1M Atkins & Pantin buffer, pH 10.0) and incubated at 40° C. for 30 minutes. After adding 5 ml of 0.1N hydrochloric acid to terminate the reaction, a 0.5 ml portion of the reaction mixture was taken out and mixed with 5 ml of an iodine solution (0.005% iodine in 0.05% potassium iodide solution) to measure decrease in the absorbance at […]. One unit of the activity was defined as the amount of enzyme which decreases 1% of the absorbance at 660 nm within 1 minute under these conditions.

[1] = enzyme treated with 1 mM inhibitor at 40° C. for 10 minutes in 0.1M H3BO3·KCl-NaOH buffer (pH 8.0), control 100, activity on soluble starch, iodine method

O=C(O)CI [MIA, monoiodoacetic acid]
Residual Activity (%) (pH 8): 82%

CCN1C(=O)C=CC1=O [NEM, N-ethylmaleimide]
Residual Activity (%) [1]: 84%

O=C(O)c1cc[c]([Hg][Cl])cc1 [PCMB, p-chloromercuribenzoic acid]
Residual Activity (%) [1]: 83%
